Measurements taken from patent US10667516B2, “Use of 3-isoxazolidinones as selective herbicides in grass and Brassica crops” (FMC Corporation, priority 2011, dated 2020).

System: chickweed
Experiment: Volatility evaluation (phytotoxic injury of chickweed by volatilization from treated soil)
Settings: formulations containing the non-encapsulated compound
Excerpt: Chickweed is very sensitive to clomazone and is a good indicator for bleaching compound volatility. […] These formulations are the reference standards against which the experimental formulations are compared. Four inch plastic pots were fitted with a basket style coffee filter, cut to size, placed in the bottom of each pot to cover the drainage holes and to stop soil from exiting the bottom of the pot. Each pot was filled with sandy loam soil that was sieved using a #10 mesh sieve to remove any large soil particles and debris. Filled soil pots were lightly watered prior to treatment application. The test solutions were applied to the soil surface using the DeVries Generation III sprayer, two replicates per test solution, at a rate of 0.25 g ai/ha. Each replicate test was set-up by placing an empty four inch plastic pot onto a greenhouse bench. Pots containing mature chickweed, about 2 inches in height, were placed around the empty pot in an eight spoke pattern. […] The untreated chickweed plants were evaluated for phytotoxic injury at 14 days after treatment. Volatility was evaluated by measuring the distance (cm) from the center of the treated soil pot to the distal point where bleaching effects were observed on each spoke. All eight spokes for each treatment were evaluated. The amount of volatility was determined by calculating the total square centimeters of phytotoxic injury per treatment. […]

Compound | control of volatility compared to the non-encapsulated clomazone formulation
CC1(C)CON(Cc2ccc(Cl)cc2Cl)C1=O [2,4-Cl, 2-(2,4-dichlorophenyl)methyl-4,4-dimethyl-3-isoxazolidone] | significant control of volatility
CC1(C)CON(Cc2cc(Cl)ccc2Cl)C1=O [2,5-Cl, 2-(2,5-dichlorophenyl)methyl-4,4-dimethyl-3-isoxazolidone] | significant control of volatility
